Patent publication US10463688B2, “Nylon-3 polymers active against Clostridium difficile” (priority 2015, dated 2019)
In brackets after ≈: the same amount, converted by molar mass.

Experiments:
[1] = system: C. difficile spores (630Δerm strain); assay: Viability of spores recovered from OIC assays (spore outplating), strain 630Δerm; format: cell-based, Clostridium difficile; conditions: CFU post-assay/initial CFU
Method: Experiments were conducted to determine whether any spores fail to germinate under the conditions of the OIC measurement but remain viable for subsequent germination and outgrowth. Spores were incubated for 24 h in the presence of germinant (taurocholate) and one of the polymers or other agents at multiple concentrations above the OIC. These solutions were then diluted 10 to 100-fold into sterile PBS, and further diluted upon plating onto BHIS agar medium containing germinant to achieve concentrations below the OIC of the relevant antimicrobial agent. Spore survival was calculated as the percentage of colony-forming units retrieved on outgrowth plates relative to the initial spore inoculum (100%).
Samples were diluted and plated onto BHIS medium containing 0.1% taurocholate and enumerated following incubation for at least 24 h at 37° C. Spore survival was calculated as the percentage of CFU post-assay/initial CFU.

[2] = system: C. difficile spores (R20291 strain); conditions: MH broth with taurocholate, 24 h at 37° C.
[3] = system: C. difficile spores (630Δerm strain); conditions: 630Δerm spores; MH broth with taurocholate, 24 h at 37° C.
[4] = system: human red blood cells (hRBCs)
[5] = system: C. difficile spores (R20291 strain); assay: Viability of spores recovered from OIC assays (spore outplating), strain R20291; conditions: for R20291 Mean Spore Viability: CFU post-assay/initial CFU
[6] = system: C. difficile spores (R20291 strain); assay: microbe, parasite or virus in culture; conditions: Clostridioides difficile, 24 h, read-out: OIC, minimum inhibition concentration for spore outgrowth
[7] = system: C. difficile spores (630Δerm strain); assay: microbe, parasite or virus in culture; conditions: Clostridioides difficile, 24 h, read-out: OIC, minimum inhibition concentration for spore outgrowth
[8] = Clostridioides difficile, read-out: R20291 Mean Spore Viability

| Structure (SMILES) | 630ΔErm Mean Spore Viability ([1]; concentration 20 μg/ml) | 630ΔErm Mean Spore Viability ([1]; concentration 40 μg/ml) | 630ΔErm Mean Spore Viability ([1]; concentration 80 μg/ml) | OIC, minimum inhibition concentration for spore outgrowth [2] [µg/mL] | OIC, minimum inhibition concentration for spore outgrowth [3] [µg/mL] | hemolytic activity (in words) [4] | R20291 Mean Spore Viability ([5]; concentration 10 μg/ml) | R20291 Mean Spore Viability ([5]; concentration 20 μg/ml) | R20291 Mean Spore Viability ([5]; concentration 40 μg/ml) | R20291 Mean Spore Viability ([5]; concentration 80 μg/ml) | MIC [6] [µg/mL] | MIC [7] [µg/mL] | viability at 0.5 µg/mL [5, 8] [%] | viability at 1 µg/mL [5, 8] [%] | viability at 2 µg/mL [5, 8] [%] | viability at 4 µg/mL [5, 8] [%] | viability at 8 µg/mL [5, 8] [%] |
| --- | --- | --- | --- | --- | --- | --- | --- | --- | --- | --- | --- | --- | --- | --- | --- | --- | --- |
| CC[C@H](C)[C@H](NC(=O)[C@H](CCCCN)NC(=O)[C@H](CCC(=O)O)NC(=O)[C@H](CCCCN)NC(=O)[C@H](CO)NC(=O)[C@H](CCCCN)NC(=O)[C@H](CCCNC(=N)N)NC(=O)[C@H](Cc1ccccc1)NC(=O)[C@H](Cc1ccccc1)NC(=O)[C@H](CC(=O)O)NC(=O)CNC(=O)[C@H](CC(C)C)NC(=O)[C@@H](N)CC(C)C)C(=O)NCC(=O)N[C@@H](CCCCN)C(=O)N[C@@H](CCC(=O)O)C(=O)N[C@@H](Cc1ccccc1)C(=O)N[C@@H](CCCCN)C(=O)N[C@@H](CCCNC(=N)N)C(=O)N[C@H](C(=O)N[C@H](C(=O)N[C@@H](CCC(N)=O)C(=O)N[C@@H](CCCNC(=N)N)C(=O)N[C@H](C(=O)N[C@@H](CCCCN)C(=O)N[C@@H](CC(=O)O)C(=O)N[C@@H](Cc1ccccc1)C(=O)N[C@@H](CC(C)C)C(=O)N[C@@H](CCCNC(=N)N)C(=O)N[C@@H](CC(N)=O)C(=O)N[C@@H](CC(C)C)C(=O)N[C@H](C(=O)N1CCC[C@H]1C(=O)N[C@@H](CCCNC(=N)N)C(=O)N[C@H](C(=O)N[C@@H](CCC(=O)O)C(=O)N[C@@H](CO)C(=O)O)[C@@H](C)O)C(C)C)[C@@H](C)CC)C(C)C)[C@@H](C)CC [LL-37] | 5.5% (±7.4%) | 4.0% (±4.0%) | 7.8% (±3.9%) | 5 | 10 | significant hemolytic activity | 0.4% (±0.7%) | 1.2% (±0.7%) | 3.6% (±1.8%) | 5.8% (±2.9%) |  |  |  |  |  |  |  |
| CN[C@H](CC(C)C)C(=O)N[C@H]1C(=O)N[C@@H](CC(N)=O)C(=O)N[C@H]2C(=O)N[C@H]3C(=O)N[C@H](C(=O)N[C@H](C(=O)O)c4cc(O)cc(O)c4-c4cc3ccc4O)[C@H](O)c3ccc(c(Cl)c3)Oc3cc2cc(c3O[C@@H]2O[C@H](CO)[C@@H](O)[C@H](O)[C@H]2O[C@H]2C[C@](C)(N)[C@H](O)[C@H](C)O2)Oc2ccc(cc2Cl)[C@H]1O [vancomycin] |  |  |  |  |  |  |  |  |  |  | 0.25 (≈ 0.173 µM) | > 32 | 21.1 | 7.7 | 3.4 | 1.3 | 0.9 |
